The target in one data set is T1, Human GIPr (Homo sapiens, UniProt P48546).
T1 construct: expressed in transfected cells
T1 sequence (P48546 22-466): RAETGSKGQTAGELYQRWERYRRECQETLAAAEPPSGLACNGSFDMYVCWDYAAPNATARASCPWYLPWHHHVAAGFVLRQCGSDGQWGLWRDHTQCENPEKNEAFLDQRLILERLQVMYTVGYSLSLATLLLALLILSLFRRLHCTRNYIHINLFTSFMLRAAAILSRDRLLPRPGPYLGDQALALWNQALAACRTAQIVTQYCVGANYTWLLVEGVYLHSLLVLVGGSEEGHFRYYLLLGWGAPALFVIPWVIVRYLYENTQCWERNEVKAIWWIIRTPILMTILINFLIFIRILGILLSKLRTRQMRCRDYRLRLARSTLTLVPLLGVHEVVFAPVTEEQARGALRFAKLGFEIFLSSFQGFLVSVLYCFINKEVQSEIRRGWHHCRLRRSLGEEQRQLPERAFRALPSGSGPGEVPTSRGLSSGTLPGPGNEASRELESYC
Briefly: cAMP activity assay in assay medium (assay 1). Format: cell-based. The following applies: assay medium; Table 4; read-out: hGIPR EC50. The text has this:
(§1) Biological Activity of Peptides in Cell-Based cAMP Activity Assay (Assay 1):
(§2) All sample dilutions were made in duplicate.

Another data set concerns the target T2, Human GlucR (Homo sapiens, UniProt P47871).
T2 construct: expressed in transfected cells
Briefly: cAMP activity assay in assay medium (assay 1). The note with it: assay medium; Table 4; read-out: hGlucR EC50. It counts as cell-based.
Description: as §1, §2

The target in a further data set is Human GLP1R (Homo sapiens, UniProt P43220). The data set is described as follows: cAMP activity assay in assay medium (assay 1). The following applies: assay medium; Table 4; read-out: hGLP1R EC50. It counts as cell-based. More on the design: expressed in transfected cells.
Chain of Human GLP1R (P43220 24-463): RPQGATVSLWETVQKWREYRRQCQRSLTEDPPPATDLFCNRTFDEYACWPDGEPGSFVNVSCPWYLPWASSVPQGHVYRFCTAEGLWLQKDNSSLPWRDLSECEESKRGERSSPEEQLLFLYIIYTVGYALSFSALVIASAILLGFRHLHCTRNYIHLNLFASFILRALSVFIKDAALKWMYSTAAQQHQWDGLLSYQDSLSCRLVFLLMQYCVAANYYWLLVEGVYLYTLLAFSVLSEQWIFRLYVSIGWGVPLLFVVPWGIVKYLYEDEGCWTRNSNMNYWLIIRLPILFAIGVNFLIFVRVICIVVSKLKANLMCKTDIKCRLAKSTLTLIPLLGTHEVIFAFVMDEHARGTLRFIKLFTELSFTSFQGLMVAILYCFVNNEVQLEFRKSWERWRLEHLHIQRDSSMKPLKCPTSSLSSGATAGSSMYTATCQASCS
Description: as §1, §2

The nature of data set [1]: rat plasma (frozen blank plasma, thawed). The following applies: 37° C., up to 48 hours.
Data set [2] can be described thus: mouse plasma (frozen blank plasma, thawed). The following applies: 37° C., up to 48 hours.
Data set [3] can be described thus: human plasma (frozen blank plasma, thawed). The note with it: 37° C., up to 48 hours.

The record followed here is patent US20200354426A1 (MEDIMMUNE LIMITED, priority 2016, published 2020).

Several values for one entry are separate records, joined by “and”; a condition that tells them apart may be missing. Equal entries are not always repeated. Numbered stars: 1 amine (or outer) side, 2 acyl side, 3 side chain; on linkers, the order of the positions; unused ones are H or OH. Side chains are listed from the residue outwards. Ends that are not written are not given here. Peptide text beside a SMILES is read from it. * marks the point of attachment. γGlu = O=C(O)[C@H](CCC(=O)[*:2])N[*:1]; Palmitoyl = CCCCCCCCCCCCCCCC(=O)*; Ahx = NCCCCCC(=O)O

T2 sequence (P47871 26-477): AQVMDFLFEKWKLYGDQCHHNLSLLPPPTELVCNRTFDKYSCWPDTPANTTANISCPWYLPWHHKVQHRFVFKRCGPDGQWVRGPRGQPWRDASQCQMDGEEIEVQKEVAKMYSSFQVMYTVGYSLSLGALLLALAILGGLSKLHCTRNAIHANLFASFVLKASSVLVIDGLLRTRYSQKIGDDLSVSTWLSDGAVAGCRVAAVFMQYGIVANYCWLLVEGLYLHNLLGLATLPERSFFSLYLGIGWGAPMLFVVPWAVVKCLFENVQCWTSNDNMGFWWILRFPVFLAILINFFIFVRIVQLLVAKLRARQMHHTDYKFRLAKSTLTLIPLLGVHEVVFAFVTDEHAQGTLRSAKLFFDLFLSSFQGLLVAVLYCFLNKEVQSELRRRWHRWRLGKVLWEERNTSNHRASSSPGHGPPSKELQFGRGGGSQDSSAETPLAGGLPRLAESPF

For the molecule `CCCCCCCCCCCCCCCC(=O)NCCCCCC(=O)NCCCC[C@H](NC(=O)[C@H](CO)NC(=O)[C@H](CC(=O)O)NC(=O)[C@H](CC(C)C)NC(=O)[C@H](Cc1ccc(O)cc1)NC(=O)[C@H](CCC(=O)O)NC(=O)[C@H](CO)NC(=O)[C@H](Cc1ccc(O)cc1)NC(=O)[C@H](CC(=O)O)NC(=O)[C@H](CO)NC(=O)[C@@H](NC(=O)[C@H](Cc1ccccc1)NC(=O)[C@@H](NC(=O)CNC(=O)[C@H](CCC(N)=O)NC(=O)[C@H](CO)NC(=O)[C@@H](N)Cc1c[nH]cn1)[C@@H](C)O)[C@@H](C)O)C(=O)N[C@@H](CCCNC(=N)N)C(=O)N[C@@H](C)C(=O)N[C@@H](CCCNC(=N)N)C(=O)N[C@@H](CC(=O)O)C(=O)N[C@@H](Cc1ccccc1)C(=O)N[C@H](C(=O)N[C@@H](C)C(=O)N[C@@H](Cc1c[nH]c2ccccc12)C(=O)N[C@@H](CC(C)C)C(=O)N[C@@H](CCC(=O)O)C(=O)N[C@@H](C)C(=O)NCC(=O)NCC(N)=O)C(C)C` [g838] (H-HSQGTFTSDYSEYLDSK([Ahx-Palmitoyl])RARDFVAWLEAGG-NH2; N-terminus assumed), the figures for the EC50 at Human GIPr, on Human GlucR and at Human GLP1R were 84.3 nM, 0.00568 nM and 0.0237 nM, respectively.

Turning to `CCCCCCCCCCCCCCCC(=O)N[C@@H](CCC(=O)NCCCC[C@H](NC(=O)[C@H](CCCNC(=N)N)NC(=O)[C@H](CO)NC(=O)[C@H](Cc1ccc(O)cc1)NC(=O)[C@H](CC(=O)O)NC(=O)[C@H](CO)NC(=O)[C@@H](NC(=O)[C@H](Cc1ccccc1)NC(=O)[C@@H](NC(=O)CNC(=O)[C@H](CCC(N)=O)NC(=O)[C@H](CO)NC(=O)[C@@H](N)Cc1c[nH]cn1)[C@@H](C)O)[C@@H](C)O)C(=O)N[C@@H](CC(C)C)C(=O)N[C@@H](CC(=O)O)C(=O)N[C@@H](CO)C(=O)N[C@@H](CCC(=O)O)C(=O)N[C@@H](CCCNC(=N)N)C(=O)N[C@@H](C)C(=O)N[C@@H](CCCNC(=N)N)C(=O)N[C@@H](CC(=O)O)C(=O)N[C@@H](Cc1ccccc1)C(=O)N[C@H](C(=O)N[C@@H](C)C(=O)N[C@@H](Cc1c[nH]c2ccccc12)C(=O)N[C@@H](CC(C)C)C(=O)N[C@H](C(=O)N[C@@H](C)C(=O)NCC(=O)NCC(=O)O)C(C)C)C(C)C)C(=O)O` [g842] (H-HSQGTFTSDYSRK([γGlu-Palmitoyl])LDSERARDFVAWLVAGG-OH; N-terminus assumed), the EC50 (usually the midpoint of the concentration-response curve) was 88.3 nM at Human GIPr, 0.00831 nM at Human GlucR and 0.0512 nM at Human GLP1R.

With `CCCCCCCCCCCCCCCC(=O)N[C@@H](CCC(=O)NCCCC[C@H](NC(=O)[C@H](Cc1ccc(O)cc1)NC(=O)[C@H](CCC(=O)O)NC(=O)[C@H](CO)NC(=O)[C@H](Cc1ccc(O)cc1)NC(=O)[C@H](CC(=O)O)NC(=O)[C@H](CO)NC(=O)[C@@H](NC(=O)[C@H](Cc1ccccc1)NC(=O)[C@@H](NC(=O)CNC(=O)[C@H](CCC(N)=O)NC(=O)[C@H](CO)NC(=O)[C@@H](N)Cc1c[nH]cn1)[C@@H](C)O)[C@@H](C)O)C(=O)N[C@@H](CC(=O)O)C(=O)N[C@@H](CO)C(=O)N[C@@H](CCC(=O)O)C(=O)N[C@@H](CCCNC(=N)N)C(=O)N[C@@H](C)C(=O)N[C@@H](CCCNC(=N)N)C(=O)N[C@@H](CC(=O)O)C(=O)N[C@@H](Cc1ccccc1)C(=O)N[C@H](C(=O)N[C@@H](C)C(=O)N[C@@H](Cc1c[nH]c2ccccc12)C(=O)N[C@@H](CC(C)C)C(=O)N[C@H](C(=O)N[C@@H](C)C(=O)NCC(=O)NCC(N)=O)C(C)C)C(C)C)C(=O)O` [g846] (H-HSQGTFTSDYSEYK([γGlu-Palmitoyl])DSERARDFVAWLVAGG-NH2; N-terminus assumed), the EC50 was 11.8 nM on Human GIPr, 0.0341 nM at Human GlucR and 0.0438 nM at Human GLP1R.

Regarding `CCCCCCCCCCCCCCCC(=O)N[C@@H](CCC(=O)NCCCC[C@H](NC(=O)[C@H](CO)NC(=O)[C@H](CC(=O)O)NC(=O)[C@H](CC(C)C)NC(=O)[C@H](Cc1ccc(O)cc1)NC(=O)[C@H](CCCCN)NC(=O)[C@H](CO)NC(=O)[C@H](Cc1ccc(O)cc1)NC(=O)[C@H](CC(=O)O)NC(=O)[C@H](CO)NC(=O)[C@@H](NC(=O)[C@H](Cc1ccccc1)NC(=O)[C@@H](NC(=O)CNC(=O)[C@H](CCC(N)=O)NC(=O)[C@H](CO)NC(=O)[C@@H](N)Cc1c[nH]cn1)[C@@H](C)O)[C@@H](C)O)C(=O)N[C@@H](CCCNC(=N)N)C(=O)N[C@@H](C)C(=O)N[C@@H](CCCNC(=N)N)C(=O)N[C@@H](CC(=O)O)C(=O)N[C@@H](Cc1ccccc1)C(=O)N[C@H](C(=O)N[C@@H](C)C(=O)N[C@@H](Cc1c[nH]c2ccccc12)C(=O)N[C@@H](CC(C)C)C(=O)N[C@H](C(=O)N[C@@H](C)C(=O)NCC(=O)NCC(N)=O)C(C)C)C(C)C)C(=O)O` [g867] (H-HSQGTFTSDYSKYLDSK([γGlu-Palmitoyl])RARDFVAWLVAGG-NH2; N-terminus assumed), the EC50 is 41.7 nM on Human GIPr, 0.00704 nM on Human GlucR and 0.0448 nM at Human GLP1R.

With `CCCCCCCCCCCCCCCC(=O)N[C@@H](CCC(=O)NCCCC[C@H](NC(=O)[C@H](Cc1ccc(O)cc1)NC(=O)[C@H](CCC(=O)O)NC(=O)[C@H](CO)NC(=O)[C@H](Cc1ccc(O)cc1)NC(=O)[C@H](CC(=O)O)NC(=O)[C@H](CO)NC(=O)[C@@H](NC(=O)[C@H](Cc1ccccc1)NC(=O)[C@@H](NC(=O)CNC(=O)[C@H](CCC(N)=O)NC(=O)[C@H](CO)NC(=O)[C@@H](N)Cc1c[nH]cn1)[C@@H](C)O)[C@@H](C)O)C(=O)N[C@@H](CC(=O)O)C(=O)N[C@@H](CO)C(=O)N[C@@H](CCCNC(=N)N)C(=O)N[C@@H](CCCNC(=N)N)C(=O)N[C@@H](C)C(=O)N[C@@H](CCCNC(=N)N)C(=O)N[C@@H](CC(=O)O)C(=O)N[C@@H](Cc1ccccc1)C(=O)N[C@H](C(=O)N[C@@H](CCC(=O)O)C(=O)N[C@@H](Cc1c[nH]c2ccccc12)C(=O)N[C@@H](CC(C)C)C(=O)N[C@@H](CCC(=O)O)C(=O)N[C@@H](C)C(=O)NCC(=O)NCC(N)=O)C(C)C)C(=O)O` [g876] (H-HSQGTFTSDYSEYK([γGlu-Palmitoyl])DSRRARDFVEWLEAGG-NH2; N-terminus assumed), the EC50 at Human GIPr amounted to 79 nM; on Human GlucR it was 0.0104 nM; on Human GLP1R, 0.0863 nM.

As for “HSQGTFTSDXSEYLDSERARDFVAWLEAGG-amide ×10 = K(gE-palm)”, the fragment found result in data set [1] is listed as “DPP cleaved product, minor”; in data set [2] it was “DPP cleaved product, minor”.

For the molecule “HSQGTFTSDXSRYLDSRSARDFVAWLEAGG-amide ×10 = K(gE-palm)”, the fragment found result in data set [1] and in data set [2] was “DPP cleaved product” in each case. In data set [3], this molecule had a not cleaved of 100% stable peptide at 24 h.

On to “HSQGTFTSDYSKXLDSERARDFVAWLVAGG-amide ×13 = K(gE-palm)”, for which the fragment found result in data set [1] is “DPP cleaved product”; in data set [2], “DPP cleaved product and +1 DPP cleaved product”. The molecule further gave a not cleaved in data set [3] of 100% stable peptide at 24 h.

Regarding “HSQGTFTSDYSKYLDSERARDFVAWLEAGG-NH2 [g840]”, the EC50 at Human GIPr stood at 102 nM; on Human GlucR, 0.0053 nM; at Human GLP1R, 0.145 nM.

“HSQGTFTSDYSKYLDSRRAQDFVQWLVRGGKNNRNNIAK-NH2 [g321]”: the EC50 at Human GIPr amounted to 6.41 nM; at Human GlucR, 0.0279 nM; on Human GLP1R, 0.0272 nM.
